Measured values from publication PMC10740580, “Benzothiazole-Phthalimide Hybrids as Anti-Breast Cancer and Antimicrobial Agents” (Antibiotics, 2023).
Values after ≈ are worked out from the molar mass of the structure shown. Values belong to the molecule of their own block, whether it stands above or below them.

How the values were obtained:
Candida albicans 90028 = experiment: Antifungal microdilution, C. albicans ATCC 90028; assay type: cell-based; conditions: microdilution CLSI M27-A3, 48 h, 37 °C
Protocol: (§1) In accordance with CLSI guidelines, compounds 3a–h were tested against a variety of fungal strains (Candida albicans 10231, Candida albicans 90028, Candida glabrata 15126, and Candida parapsilosis 22019) belonging to the ATCC collection. Amphotericin B was utilized as a reference drug. A similar trend of results, or even better than that obtained against bacteria, was assessed against fungal strains. […] Also, in this case, compound 3h emerged as the best of the series, with MICs of 16 μg/mL against Candida glabrata and Candida parapsilosis strains and 32 μg/mL against Candida albicans strains.
(§2) A microdilution technique described by the Clinical and Laboratory Standards Institute (CLSI, M27-A3) was used to assess the antifungal activity. The following fungal strains, belonging to the ATCC collection and available as freeze-dried discs, were used: C. albicans ATCC 10231, C. albicans ATCC 90028, C. glabrata ATCC 15126, and C. parapsilosis ATCC 22019. Stock solutions were prepared and preserved with purity as previously described for the antibacterial studies. Each yeast strain’s pre-cultures were made in Sabouraud broth (SAB) and allowed to grow until they stopped at 37 °C. By using a spectrophotometric technique (530 nm, range 0.12–0.15), the turbidity of the yeast stock suspension was calibrated to 0.5 McFarland Standard. Next, the standardized suspension was diluted first at 1:50 with SAB and then at 1:20 in the same medium to have […]. A total of 100 µL of inoculum was seeded into each well. As a control for growth, several wells containing only inoculated broth were prepared. The plates were incubated for 48 h at 37 °C, and the MIC values were calculated as the final well with no fungal growth. […] MIC values were observed based on the absence of fungal growth in the final well. The MICs were calculated by conducting the antifungal test three times in duplicate. As a control, amphotericin B was used.

[1] = system: Candida parapsilosis 22019; experiment: Antifungal microdilution, C. parapsilosis ATCC 22019; assay type: cell-based; conditions: microdilution CLSI M27-A3, 48 h, 37 °C, read-out: MIC C.p. 22019
Protocol: as §1, §2

Candida glabrata 15126 = experiment: Antifungal microdilution, C. glabrata ATCC 15126; assay type: cell-based; conditions: Nakaseomyces glabratus, microdilution CLSI M27-A3, 48 h, 37 °C, read-out: MIC C.g. 15126
Protocol: as §1, §2

Candida albicans 10231 = experiment: Antifungal microdilution, C. albicans ATCC 10231; assay type: cell-based; conditions: microdilution CLSI M27-A3, 48 h, 37 °C
Protocol: as §1, §2

[2] = system: Staphylococcus aureus 25923; experiment: Broth microdilution, S. aureus ATCC 25923; assay type: cell-based; conditions: Staphylococcus aureus, 25923, 24 h, 37 °C
Excerpt: (§3) Compounds 3a–h were examined in accordance with the Clinical Laboratory Standards Institute (CLSI) recommendations, by means of the broth microdilution method, against gram-positive bacteria (Staphylococcus aureus 25923, Staphylococcus aureus 29213, Staphylococcus aureus 43300, Enterococcus faecalis 29212) and gram-negative bacteria (Escherichia coli 25922, Klebsiella pneumoniae 13883, Pseudomonas aeruginosa 27853) belonging to the ATCC collection, using levofloxacin as a reference drug. Table 3 lists the results, expressed as MIC (µg/mL). […] The lack of activity observed for compound 3d could be conceivably due to its poor solubility in the culture medium containing the inoculum.
(§4) Following the recommendations of the CLSI (Clinical and Laboratory Standards Institute, 2012), the broth microdilution method was used to determine the in vitro minimum inhibitory concentrations (MICs, µg/mL).. The concentration of the investigated compounds was set to its highest value to create stock solutions. Then, the stock solutions were diluted 1:10 with Cation-Adjusted Mueller Hinton Broth (Oxoid, Milan, Italy). After that, a series of concentrations from 512 µg/mL to […] were obtained in the wells by performing two-fold serial dilutions in the appropriate test medium. The diluent used to create the stock solution was 100% DMSO. We used the following bacterial strains from the ATCC collection that were available as freeze-dried discs: gram-positive strains such as S. aureus ATCC 25923, 29213, and 43300, and E. faecalis ATCC 29212, and gram-negative ones such as E. coli ATCC 25922, K. pneuomoniae ATCC 13883, and P. aeruginosa ATCC 27853. To preserve the purity of cultures and to allow their reproducibility, cryovials of all microbial strains were set up in the medium and stored at −80 °C. Mueller Hinton Broth (MHB) was used to prepare pre-cultures of each bacterial strain, which were then incubated for 3–5 h at 37 °C. In accordance with CLSI procedure M7-A9, the turbidity of the bacterial cell suspension was calibrated to 0.5 McFarland Standard using a spectrophotometric approach (OD625 nm 0.08–0.10). The standardized suspension was then further diluted (1:100) with MHB to reach 1–2 × 10^6 CFU/mL. A 200 µL aliquot of the final inoculum was inserted into each well. As a control for growth, several wells containing only inoculated broth were prepared. The plates were incubated at 37 °C for 24 h, and the MIC values were calculated as the lowest concentration of compounds at which there was no optically detectable bacteria growth. Each experiment was carried out in duplicate and repeated twice to determine the MICs. Levofloxacin served as the study’s standard reference antibiotic. Additionally, the antibacterial activity of DMSO alone (used as a diluent for the investigated compounds) was examined; therefore, volumes of this solvent with a concentration of less than 5% were utilized throughout the experimentation.

[3] = system: Acinetobacter baumanii 19606; experiment: Broth microdilution, A. baumanii 19606; assay type: cell-based; conditions: Acinetobacter baumannii, 24 h, 37 °C, read-out: MIC A.b. 19606
[4] = system: Staphylococcus aureus 29213; experiment: Broth microdilution, S. aureus ATCC 29213; assay type: cell-based; conditions: 24 h, 37 °C
Excerpt: as §3, §4

[5] = system: Enterococcus faecalis 29212; experiment: Broth microdilution, E. faecalis ATCC 29212; assay type: cell-based; conditions: 24 h, 37 °C, read-out: MIC E.f. 29212
Excerpt: as §3, §4

[6] = system: Staphylococcus aureus 43300; experiment: Broth microdilution, S. aureus ATCC 43300; assay type: cell-based; conditions: 24 h, 37 °C, methicillin-resistant
Excerpt: as §3, §4

Escherichia coli 25922 = experiment: Broth microdilution, E. coli ATCC 25922; assay type: cell-based; conditions: 24 h, 37 °C
Excerpt: as §3, §4

[7] = system: Pseudomonas aeruginosa 27853; experiment: Broth microdilution, P. aeruginosa ATCC 27853; assay type: cell-based; conditions: 24 h, 37 °C
Excerpt: as §3, §4

[8] = system: Klebsiella pneumoniae 13883; experiment: Broth microdilution, K. pneumoniae ATCC 13883; assay type: cell-based; conditions: 24 h, 37 °C, read-out: MIC K.p. 13883
Excerpt: as §3, §4

MCF-7 cells = experiment: MTT cell viability assay, MCF-7; assay type: cell-based, human; conditions: Homo sapiens, MCF7, 72 h exposure, mean ± SD
Protocol: (§5) The anticancer activity of the studied compounds (3a–h) was explored with regards to two human breast cancer cell lines, namely the estrogen receptor positive (ER+) MCF-7 cells and the triple negative MDA-MB-231 cells (ER-, PR-, and HER-2/Neu-). Cells were continuously exposed to the test substances for 72 h, after which their viability was assessed by means of the MTT assay. Table 2 lists the determined IC50 values for the investigated substances and the reference drug, thalidomide. […] Additionally, the same test for all the compounds has been performed on nonmalignant breast epithelial cells (MCF-10A) to ascertain their potential cytotoxicity.
(§6) The four cell lines used in this work (MCF-7, MDA-MB-231, MCF-10A, and 3T3-L1) were obtained from the American Type Culture Collection (ATCC, Manassas, VA, USA). All cell lines were maintained at 37 °C in a humidified atmosphere of 95% air and 5% CO2 and periodically screened for contamination. MCF-7, human breast cancer cells estrogen receptor (ER)-positive, and human breast cancer triple negative MDA-MB231 were grown in DMEM-F12 medium containing 2 mmol/L L-glutamine, 1 mg/mL penicillin–streptomycin, and 5% newborn calf serum (NCS) or 5% fetal bovine serum (FBS), respectively. MCF-10A human mammary epithelial cells were cultured in DMEM/F12 medium, supplemented with 5% horse serum (HS) (Eurobio, Les Ullis, Cedex, France), 100 U/mL penicillin/streptomycin, […], 20 ng/mL hEGF (human epidermal growth factor), […], and […] (Sigma-Aldrich, Milano, Italy). BALB/3T3 murine fibroblast cells were cultured in DMEM high glucose supplemented with 10% bovine calf serum (BCS), 1% L-glutamine, and 100 U/mL penicillin/streptomycin.
(§7) Cell viability was evaluated by means of the 3-(4,5-dimethylthiazol-2-y1)-2,5-diphenyltetra zolium bromide (MTT, Sigma-Aldrich, Milan, Italy) assay. On 48-well plates, cells were seeded, and they were cultured in complete medium. Before being treated, cells were starved in serum-free medium for 24 h to allow cell cycle synchronization. Subsequently, cells were exposed to increasing doses of each compound for 72 h in phenol-red-free media supplemented with 1% serum before fresh MTT was added to each well (final concentration: 0.5 mg/mL). Cells were lysed with DMSO after 2 h of incubation at 37 °C, and optical density at 570 nm was then determined with a microplate reader. Using GraphPad Prism 9 software (GraphPad Inc., San Diego, CA, USA), the mean absorbance for each sample was expressed as a percentage over the control and plotted vs. drug concentrations to establish the IC50 values. The given standard deviations (SDs) are indicative of three separate tests carried out in triplicate.

MDA-MB-231 cells [9] = experiment: MTT cell viability assay, MDA-MB-231; assay type: cell-based, human; conditions: Homo sapiens, MDA-MB-231, 72 h exposure, mean ± SD
Protocol: as §5, §6, §7

MCF-10A cells = experiment: MTT cell viability assay, nonmalignant MCF-10A; assay type: cell-based; conditions: Homo sapiens, 72 h exposure, nonmalignant breast epithelial cells, mean ± SD, read-out: IC50 MCF10-A
Protocol: as §5, §6, §7

MDA-MB-231 cells [10] = experiment: TUNEL assay (DNA damage); assay type: cell-based, human; conditions: 50 μM, 24 h
Protocol: To further assess the effect of 3h treatment in MDA-MB-231, the terminal deoxynucleotidyl transferase dUTP nick-end labeling (TUNEL) assay was used. Thus, 3h or Thalidomide, as reference drug, were administered to the cells, for 24 h, at 25 and 50 μM concentrations, respectively, or with only the vehicle (DMSO), as negative control and then processed as outlined in the experimental section. […] Nuclei were counterstained with blue DAPI (Figure 2, panels A), and merge channels were also shown (Figure 2, panels C), where it is evident the perfect superposition of green and blue signals. […] Images taken from bright fields were also included (Figure 2, panels D).
DNA damage and cell death were analyzed by means of the TUNEL assay as indicated by the manufacturer’s protocols (CF™488A TUNEL Assay Apoptosis Detection Kit, Biotium, Hayward, CA, USA), with few changes, as in [42]. DAPI staining (0.2 μg/mL, Sigma Aldrich, Milan, Italy) was adopted for cell nuclei. Observations were made at 20× magnification using a fluorescence microscope (Leica DM 6000, Leica Microsystem Srl, Buccinasco, Italy). LAS-X software (Version: 3.5.7.23225; Leica Microsystem Srl, Buccinasco, Italy) was employed for the acquisition and processing of the images. Images are representative of two separate experiments from which different fields were acquired.
Figure 2 TUNEL assay. […]

MIC (Candida albicans 90028): 1 µg/mL (≈ 1.08 µM)
MIC [1]: 2 µg/mL (≈ 2.16 µM)
MIC (Candida glabrata 15126): 2 µg/mL (≈ 2.16 µM)
MIC (Candida albicans 10231): 2 µg/mL (≈ 2.16 µM)
SMILES: C[C@@H]1[C@H](O)[C@@H](C)/C=C/C=C/C=C/C=C/C=C/C=C/C=C/[C@H](O[C@@H]2O[C@H](C)[C@@H](O)[C@H](N)[C@@H]2O)C[C@@H]2O[C@](O)(C[C@@H](O)C[C@@H](O)[C@H](O)CC[C@@H](O)C[C@@H](O)CC(=O)O[C@H]1C)C[C@H](O)[C@H]2C(=O)O [amph B, amphotericin B, reference compound]

MIC [2]: 0.5 µg/mL (≈ 1.38 µM)
MIC [3]: 8 µg/mL (≈ 22.1 µM)
MIC [4]: 0.5 µg/mL (≈ 1.38 µM)
MIC [5]: 2 µg/mL (≈ 5.53 µM)
MIC [6]: 0.5 µg/mL (≈ 1.38 µM)
MIC (Escherichia coli 25922): 0.06 µg/mL (≈ 0.166 µM)
MIC [7]: 4 µg/mL (≈ 11.1 µM)
MIC [8]: 8 µg/mL (≈ 22.1 µM)
SMILES: C[C@H]1COc2c(N3CCN(C)CC3)c(F)cc3c(=O)c(C(=O)O)cn1c23 [levofloxacin, reference compound]

IC50 (MCF-7 cells): 360 ± 2 µM
IC50 (MDA-MB-231 cells [9]): 413 ± 2 µM
SMILES: O=C1CCC(N2C(=O)c3ccccc3C2=O)C(=O)N1 (stereo not shown) [thalidomide, reference compound]
IC50 (MCF-10A cells): > 500 µM
DNA damage (TUNEL, green nuclear fluorescence) (MDA-MB-231 cells [10]): found to damage DNA
